Experimental data: patent publication US10383880B2 (Reset Therapeutics, Inc., priority 2012, dated 2019)
pEC50: −log10 of the molar value.

What follows are molecules tested on Per2-dLuc U2OS reporter cells (assay: Per2 assay for evaluating the potency of test compounds (high-throughput circadian assay)). Conditions: Homo sapiens, U2OS, stable U2OS reporter cells harboring Per2-dLuc; luminescence monitored over 4-5 days at 35° C.
Format: cell-based
Description: Compounds were screened by using a high-throughput circadian assay system as previously described in Zhang, E. E. et al. Cell, 2009, 139, 199-210. In brief, stable U2OS reporter cells harboring Per2-dLuc were plated at a density of 8,000 cells/well in Corning 96-well, solid white, flat bottom, TC-treated microplates (Corning®), and incubated for 24 hours at 37° C. in the presence of 5% CO2. The cells were then synchronized by serum shock by media exchange to a minimal explant media (10 mM HEPES (pH 7.0), 2% B27, 1×PSG (Invitrogen®), and 1.0 mM beetle luciferin (Promega®)) followed by the addition of the compounds of formula I dissolved in dimethylsulfoxide (0.5% final dimethylsulfoxide concentration). Gene expression was monitored by measuring luminescence (TecanR M200) over 4-5 days at 35° C. The period, amplitude, and phase of the associated circadian rhythms were determined using Multicycle™ software (Actimetrics, Inc). EC50 values of the compounds of formula I were calculated using Graphpad™ (Prism®).

Structure (SMILES)	pEC50
CS(=O)(=O)N(Cc1ccco1)CC(O)Cn1c2ccccc2c2c(F)cccc21 (centres unmarked) [Compound 239, N-(3-(4-Fluoro-9H-carbazol-9-yl)-2-hydroxy-propyl)-N-(furan-2-yl-methyl)methane-sulfonamide]	5.80
CS(=O)(=O)N(CC(O)Cn1c2cc(F)ccc2c2ccc(F)cc21)C1CCC1 (centres unmarked) [Compound 160, N-Cyclobutyl-N-(3-(2,7-difluoro-9H-carbazol-9-yl)-2-hydroxypropyl)methanesulfonamide]	6.22
O=S1(=O)CCCN1C[C@@H](O)Cn1c2ccccc2c2ccccc21 [Compound 39, (S)-N-(3-(9H-Carbazol-9-yl)-2-hydroxypropyl)isothiazolidine 1,1-dioxide]	7.68
CS(=O)(=O)N(CC(O)Cn1c2ccc(F)cc2c2cc(F)ccc21)c1ccc(C2CCC2)cc1 (centres unmarked) [Compound 211, N-(4-Cyclobutylphenyl)-N-(3-(3,6-difluoro-9H-carbazol-9-yl)-2-hydroxypropyl)methanesulfonamide]	5.03
CCCOc1ccc(N(CC(O)Cn2c3ccc(F)cc3c3cc(F)ccc32)S(C)(=O)=O)cc1 (centres unmarked) [Compound 203, N-(3-(3,6-Difluoro-9H-carbazol-9-yl)-2-hydroxypropyl)-N-(4-propoxyphenyl)methanesulfonamide]	5.75
CC1CN(CC(C)(O)Cn2c3ccc(F)cc3c3cc(F)ccc32)S(=O)(=O)C1 (centres unmarked) [Compound 195, 2-(3-(3,6-Difluoro-9H-carbazol-9-yl)-2-hydroxy-2-methylpropyl)-4-methylisothiazolidine-1,1-dioxide]	6.60
CCOCCS(=O)(=O)N(Cc1ccco1)CC(O)Cn1c2ccccc2c2ccccc21 (centres unmarked) [Compound 12, N-(3-(9H-Carbazol-9-yl)-2-hydroxypropyl)-2-ethoxy-N-(furan-2-ylmethyl)ethanesulfonamide]	5.99
CS(=O)(=O)N(Cc1ccco1)CC(O)Cn1c2ccc(F)cc2c2cc(F)ccc21 (centres unmarked) [Compound 88, N-(3-(3,6-Difluoro-9H-carbazol-9-yl)-2-hydroxypropyl)-N-(furan-2-ylmethyl)methanesulfonamide]	6.03
CS(=O)(=O)N(CC(O)Cn1c2cc(F)ccc2c2ccc(F)cc21)C1CC1 (centres unmarked) [Compound 161, N-Cyclopropyl-N-(3-(2,7-difluoro-9H-carbazol-9-yl)-2-hydroxypropyl)methanesulfonamide]	5.94
CCCN(CC(O)Cn1c2ccc(F)cc2c2cc(F)ccc21)S(C)(=O)=O (centres unmarked) [Compound 153, N-(3-(3,6-Difluoro-9H-carbazol-9-yl)-2-hydroxypropyl)-N-propylmethanesulfonamide]	6.40
CCN1CCCN(CC(O)Cn2c3ccc(F)cc3c3cc(F)ccc32)S1(=O)=O (centres unmarked) [Compound 226, 2-(3-(3,6-Difluoro-9H-carbazol-9-yl)-2-hydroxypropyl)-6-ethyl-1,2,6-thiadiazinane-1,1-dioxide]	6.50
CC(C)Oc1ccc(N(CC(O)Cn2c3ccc(F)cc3c3cc(F)ccc32)S(C)(=O)=O)cc1 (centres unmarked) [Compound 210, N-(3-(3,6-Difluoro-9H-carbazol-9-yl)-2-hydroxypropyl)-N-(4-isopropoxyphenyl)methanesulfonamide]	5.14
O=S1(=O)Cc2ccccc2CN1CC(O)Cn1c2ccccc2c2ccccc21 (centres unmarked) [Compound 35, N-(3-(9H-Carbazol-9-yl)-2-hydroxypropyl)-3,4-dihydro-1H-benzo[d][1,2]thiazine 2,2-dioxide]	5.82
CC1CCCC(N(CC(O)Cn2c3ccccc3c3ccccc32)S(C)(=O)=O)C1 (centres unmarked) [Compound 142, N-(3-(9H-Carbazol-9-yl)-2-hydroxypropyl)-N-(3-methylcyclohexyl)methanesulfonamide]	6.09
CS(=O)(=O)N(CC(O)Cn1c2ccccc2c2ccccc21)c1ccon1 (centres unmarked) [Compound 81, N-(3-(9H-Carbazol-9-yl)-2-hydroxypropyl)-N-(isoxazol-3-yl)methanesulfonamide]	6.02
O=S1(=O)CCCN1CC(O)Cn1c2cc(F)ccc2c2c(F)cccc21 (centres unmarked) [Compound 97, N-(3-(2,5-Difluoro-9H-carbazol-9-yl)-2-hydroxypropyl)-isothiazolidine-1,1-dioxide]	6.50
O=S1(=O)CCCN1C[C@H](O)Cn1c2ccccc2c2ccccc21 [Compound 40, (R)-N-(3-(9H-Carbazol-9-yl)-2-hydroxypropyl)isothiazolidine 1,1-dioxide]	6.75
O=S1(=O)CCCN1CC(O)Cn1c2cccc(F)c2c2c(F)cccc21 (centres unmarked) [Compound 106, N-(3-(4,5-Difluoro-9H-carbazol-9-yl)-2-hydroxypropyl)-isothiazolidine-1,1-dioxide]	5.07
CS(=O)(=O)N(CC(O)Cn1c2ccccc2c2ccccc21)C1CCC(F)(F)CC1 (centres unmarked) [Compound 128, N-(3-(9H-Carbazol-9-yl)-2-hydroxypropyl)-N-(4,4-difluorocyclohexyl)methanesulfonamide]	6.43

Structure (SMILES)	pEC50
CS(=O)(=O)N(CC(O)Cn1c2ccc(F)cc2c2cc(F)ccc21)C1CC1 (centres unmarked) [Compound 118, N-Cyclopropyl-N-(3-(3,6-difluoro-9H-carbazol-9-yl)-2-hydroxypropyl)methanesulfonamide]	7.09
CS(=O)(=O)N(CC(O)Cn1c2ccccc2c2ccccc21)CC1CCCCO1 (centres unmarked) [Compound 53, N-(3-(9H-Carbazol-9-yl)-2-hydroxypropyl)-N-((tetrahydro-2H-pyran-2-yl)methyl)methanesulfonamide]	6.24
CC(O)(CN1CCNS1(=O)=O)Cn1c2ccc(F)cc2c2cc(F)ccc21 (centres unmarked) [Compound 176]	6.90
O=S1(=O)CCCN1CC(O)Cn1c2ccccc2c2ccccc21 (centres unmarked) [Compound 20, N-(3-(9H-Carbazol-9-yl)-2-hydroxypropyl)isothiazolidine 1,1-dioxide]	7.54
CS(=O)(=O)N1CCCC1C(O)Cn1c2ccccc2c2ccccc21 (centres unmarked) [Compound 241, 2-(9H-Carbazol-9-yl)-1-(1-(methyl-sulfonyl)-pyrrolidin-2-yl)ethanol]	6.31
O=S1(=O)N(CC(O)Cn2c3ccc(F)cc3c3cc(F)ccc32)CCCN1C1CCC1 (centres unmarked) [Compound 228, 2-(3-(3,6-Difluoro-9H-carbazol-9-yl)-2-hydroxypropyl)-6-cyclobutyl-1,2,6-thiadiazinane-1,1-dioxide]	5.47
O=S(=O)(c1cn[nH]c1)N(Cc1ccco1)CC(O)Cn1c2ccccc2c2ccccc21 (centres unmarked) [Compound 5, N-(3-(9H-Carbazol-9-yl)-2-hydroxypropyl)-N-(furan-2-ylmethyl)-1H-pyrazole-4-sulfonamide]	5.09
CC1(N(CC(O)Cn2c3ccc(F)cc3c3cc(F)ccc32)S(C)(=O)=O)CCCC1 (centres unmarked) [Compound 196, N-(3-(3,6-Difluoro-9H-carbazol-9-yl)-2-hydroxypropyl)-N-(1-methylcyclopentyl)methanesulfonamide]	6.83
CCN(CC(O)Cn1c2ccccc2c2ccccc21)S(C)(=O)=O (centres unmarked) [Compound 45, N-(3-(9H-Carbazol-9-yl)-2-hydroxypropyl)-N-ethylmethanesulfonamide]	6.40
O=S1(=O)NCCCN1CC(O)Cn1c2ccc(F)cc2c2cc(F)ccc21 (centres unmarked) [Compound 171, 2-(3-(3,6-Difluoro-9H-carbazol-9-yl)-2-hydroxypropyl)-1,2,6-thiadiazinane-1,1-dioxide]	7.60
CCN1CCCN(CC(C)(O)Cn2c3ccc(F)cc3c3cc(F)ccc32)S1(=O)=O (centres unmarked) [Compound 227, 2-(3-(3,6-Difluoro-9H-carbazol-9-yl)-2-hydroxy-2-methylpropyl)-6-ethyl-1,2,6-thiadiazinane-1,1-dioxide]	5.28
CC(O)(CN(Cc1ccco1)S(C)(=O)=O)Cn1c2ccccc2c2ccccc21 (centres unmarked) [Compound 240, N-(3-(9H-Carbazol-9-yl)-2-hydroxy-2-methylpropyl)-N-(furan-2-yl-methyl)methane-sulfonamide]	5.97
CS(=O)(=O)N(Cc1ccco1)CC(O)Cn1c2cc(F)ccc2c2ccc(F)cc21 (centres unmarked) [Compound 93, N-(3-(2,7-Difluoro-9H-carbazol-9-yl)-2-hydroxypropyl)-N-(furan-2-ylmethyl)methanesulfonamide]	5.54
O=S1(=O)N(CC(O)Cn2c3ccc(F)cc3c3cc(F)ccc32)CCN1C1CCCC1 (centres unmarked) [Compound 231]	5.82
O=S1(=O)CCCN1CC(O)Cn1c2ccc(F)cc2c2c(F)cccc21 (centres unmarked) [Compound 108, N-(3-(3,5-Difluoro-9H-carbazol-9-yl)-2-hydroxypropyl)-isothiazolidine-1,1-dioxide]	6.41
O=S1(=O)CCCCN1CC(O)Cn1c2ccc(F)cc2c2c(F)cccc21 (centres unmarked) [Compound 107, N-(3-(3,5-Diflouoro-9H-carbazol-9-yl)-2-hydroxypropyl)-1,2-thiazinane 1,1-dioxide]	6.62
CC(O)(CN(C1(C)CCC1)S(C)(=O)=O)Cn1c2ccc(F)cc2c2cc(F)ccc21 (centres unmarked) [Compound 187, N-(3-(3,6-Difluoro-9H-carbazol-9-yl)-2-hydroxy-2-methylpropyl)-N-(1-methylcyclobutyl)methanesulfonamide]	5.56
O=S(=O)(CC1CCCCO1)N(Cc1ccco1)CC(O)Cn1c2ccccc2c2ccccc21 (centres unmarked) [Compound 18, N-(3-(9H-Carbazol-9-yl)-2-hydroxypropyl)-N-(furan-2-ylmethyl)-1-(tetrahydro-2H-pyran-2-yl)methanesulfonamide]	5.42
CS(=O)(=O)N(Cc1ccco1)CC(O)Cn1c2ccccc2c2ccccc21 (centres unmarked) [Compound 1, N-(3-(9H-Carbazol-9-yl)-2-hydroxypropyl)-N-(furan-2-ylmethyl)methanesulfonamide]	6.47
